# From patent US12540943B2, “Use of Acyl coenzyme A: cholesterol acyltransferase-1 in diagnosis and treatment of liver cancer” (ACADEMY OF MILITARY MEDICAL SCIENCES, priority 2018, dated 2026)
# Tests used:
# [1] = system: HepG2; experiment: CCK8 experiment, proliferation of liver cancer cell line; format: cell-based, human; settings: CCK8 growth curves 0-72 hours, inhibitor 10 μM, 20 μM or SOAT1 knockdown
# [2] = system: breast cancer MCF7 cell line; experiment: Proliferation of other tumor cell lines; format: cell-based, human; settings: MCF7, FIG. 7
# Method: (§1) 1) On the first day, after routine trypsinization and counting of cells in a 60 mm culture dish, 5000 cells/well, inoculated 4 96-well plates.
# (§2) 2) On the second day, after about 24 hours of culture, the cell growth was in the logarithmic phase. Replaced with a new culture medium added with different concentrations of SOAT1 inhibitor, 100 μl/well, set 10 μM, 20 μM concentration group and control group respectively, the control group was 1% DMSO, each group had 3 repetitive wells. Took a 96-well plate and added 10% CCK8, 100 μl/well, and measured the OD value at 0 hour at 450 nm wavelength after 1 hour. Cell-free well was a blank background.
# (§3) 3) On the third day, added 10% CCK8 to a 96-well plate, and measured the OD value at 24 hours at 450 nm wavelength after 1 hour.
# (§4) 4) On the fourth day, added 10% CCK8 to a 96-well plate, and measured the OD value at 48 hours at 450 nm wavelength after 1 hour.
# (§5) 5) On the fifth day, added 10% CCK8 to a 96-well plate, and measured the OD value at 72 hours at 450 nm wavelength after 1 hour.
# (§6) 6) Summarized the OD values at all time points and drew growth curves. 8. Cell migration experiment
# [3] = system: leukemia Jurkat cell line; experiment: Proliferation of other tumor cell lines; format: cell-based, human; settings: FIG. 7
# Method: as §1, §2, §3, §4, §5, §6
# [4] = system: Cervical cancer Hela cell line; experiment: Proliferation of other tumor cell lines; format: cell-based, human; settings: FIG. 7
# Method: as §1, §2, §3, §4, §5, §6
# [5] = system: non-small cell lung cancer A549 cell line; experiment: Proliferation of other tumor cell lines; format: cell-based, human; settings: A549, FIG. 7
# Method: as §1, §2, §3, §4, §5, §6
# [6] = system: esophageal cancer ECA109 cell line; experiment: Proliferation of other tumor cell lines; format: cell-based, human; settings: ECA109, FIG. 7
# Method: as §1, §2, §3, §4, §5, §6
# [7] = system: colon cancer HCT116 cell line; experiment: Proliferation of other tumor cell lines; format: cell-based, human; settings: HCT116, FIG. 7
# Method: as §1, §2, §3, §4, §5, §6
# [8] = system: MHCC97H; experiment: CCK8 experiment, proliferation of liver cancer cell line; format: cell-based, human; settings: for effect on proliferation: CCK8 growth curves 0-72 hours, inhibitor 10 μM, 20 μM
# Method: (§7) 7. CCK8 experiment 1) On the first day, after routine trypsinization and counting of cells in a 60 mm culture dish, 5000 cells/well, inoculated 4 96-well plates. 2) On the second day, after about 24 hours of culture, the cell growth was in the logarithmic phase. […] Took a 96-well plate and added 10% CCK8, 100 μl/well, and measured the OD value at 0 hour at 450 nm wavelength after 1 hour. Cell-free well was a blank background. 3) On the third day, added 10% CCK8 to a 96-well plate, and measured the OD value at 24 hours at 450 nm wavelength after 1 hour. 4) On the fourth day, added 10% CCK8 to a 96-well plate, and measured the OD value at 48 hours at 450 nm wavelength after 1 hour. 5) On the fifth day, added 10% CCK8 to a 96-well plate, and measured the OD value at 72 hours at 450 nm wavelength after 1 hour. 6) Summarized the OD values at all time points and drew growth curves. 8. Cell migration experiment
# [9] = system: Huh7; experiment: as above; format: cell-based, human; settings: for effect on proliferation: Huh7, CCK8 growth curves 0-72 hours, inhibitor 10 μM, 20 μM
# Method: as §7
# [10] = system: TGFBR1; experiment: Expression of cholesterol regulation and tumor invasion molecules (FIG. 8); format: cell-based
# [11] = system: PLC/PRF/5; experiment: Cell migration experiment (transwell); format: cell-based, human; settings: 20-24 hours, Avasimibe concentration 10 μM or SOAT1 knockdown
# Method: as §6
# (§8) (1) Starving cells: Withdrew the whole medium, washed twice with PBS, and replaced with serum-free DMEM.
# (§9) (2) Added 2.5% serum of DMEM to the transwell lower chamber, 600 ul/well. Equilibrated overnight in a 37° C. incubator. Thetranswell chamber was 3422 of
# (§10) (3) Added trypsin to digest the hungry cells from yesterday (about 30-50 seconds at room temperature), quickly and carefully sucked up the trypsin, added 1 ml of complete medium, and collected in a 1.5 ml centrifuge tube;
# (§11) (4) Centrifuged at 800 rpm for 4 min; discarded the supernatant, added serum-free DMEM, and washed once; centrifuged again for 4 min at 800 rpm; discarded the supernatant and added 0.5% FBS in DMEM;
# (§12) 100 μl/well was added to the tanswell upper chamber. The third day (20-24 hours later): (6) Discarded the culture medium; (7) Fixed with anhydrous methanol for 20 minutes; (8) Air-dried the film; (9) Pinched the cotton of the cotton swab to flat and rotated it to clean the upper chamber cells. Wrapped the tweezers with a cotton ball to gently wipe off the edge cells. (10) 0.5% crystal violet staining; (11) Rinsed slowly with clean water; (12) Observed and took pictures under an inverted microscope. 9. Western blot detection was done by conventional methods. 10. Statistical analysis
# [12] = system: HepG2; experiment: Cell migration experiment (transwell); format: cell-based, human; settings: 20-24 hours, Avasimibe concentration 10 μM or SOAT1 knockdown
# Method: as §6, §8, §9, §10, §11, §12
# [13] = system: ITGB4; experiment: Expression of cholesterol regulation and tumor invasion molecules (FIG. 8); format: cell-based
# [14] = system: PLC/PRF/5; experiment: CCK8 experiment, proliferation of liver cancer cell line; format: cell-based, human
# Method: as §1, §2, §3, §4, §5, §6
# [15] = system: transcription factor SREBF2; experiment: Expression of cholesterol regulation and tumor invasion molecules (FIG. 8); format: cell-based
# [16] = system: extracellular uptake receptor (LDLR); experiment: as above; format: cell-based
# [17] = system: ITGAV; experiment: as above; format: cell-based
IC50 ([8]; FIG. 5A),"IC50 ([9]; Huh7, FIG. 5A)","IC50 ([14]; PLC/PRF/5, FIG. 5A)",effect on expression of LDLR [16],Compound,effect on proliferation [1],effect on proliferation [2],effect on proliferation [3],effect on proliferation [4],effect on proliferation [5],effect on proliferation [6],effect on proliferation [7],effect on proliferation [8],effect on proliferation [9],effect on expression of TGFBR1 [10],effect on migration [11],effect on migration [12],effect on expression of ITGB4 [13],"effect on proliferation ([14]; PLC/PRF/5, CCK8 growth curves 0-72 hours, inhibitor 10 μM, 20 μM or SOAT1 knockdown)",effect on expression of SREBF2 [15],effect on expression of ITGAV [17]
25.2 µM,6.8 µM,6.9 µM,significantly inhibit the expression,Avasimibe,significantly inhibit the proliferation,significantly inhibited the proliferation,significantly inhibited the proliferation,significantly inhibited the proliferation,significantly inhibited the proliferation,significantly inhibited the proliferation,significantly inhibited the proliferation,significantly inhibit the proliferation,significantly inhibit the proliferation,significantly inhibit the expression,significantly reduce the migration,significantly reduce the migration,significantly inhibit the expression,significantly inhibit the proliferation,significantly inhibit the expression,significantly inhibit the expression
,,,,"CSc1cc(C)nc(SC)c1NC(=O)CN1CCN(CCSc2nc3ccccc3[nH]2)CC1.Cl [K604, 2-[4-[2-(benzimidazol-2-ylthio)ethyl]piperazin-lyl]-N-[2,4-bis(methylthio)-6-methyl-3-pyridyl]acetamide]",,,,,,,,significantly inhibited the proliferation,significantly inhibited the proliferation,,,,,,,
